Measurements from patent US20100029669A1, “3-(SUBSTITUTED ETHYL)-RIFAMYCIN DERIVATIVES USEFUL AS ANTIMICROBIAL AGENTS” (priority 2008, published 2010).
Converted amounts (≈) assume the structure as drawn.

What was measured:
[1] = test system: Methicillin-resistant Staphylococcus aureus OC 2878; assay: MIC, microdilution broth method (NCCLS), strain D; conditions: read-out: MIC D Strain
Experimental: (§1) The in vitro antimicrobial activity of representative compounds of the present invention was determined by the microdilution broth method following the test method from the National Committee for Clinical Laboratory Standards (NCCLS).
(§2) In this method two-fold serial dilutions of drug in cation adjusted Mueller-Hinton broth were added to wells in microdilution trays. The test organisms were prepared by adjusting the turbidity of actively growing broth cultures so that the final concentration of test organism after it is added to the wells was approximately 5×10^4 CFU/well. Following inoculation of the microdilution trays, the trays were incubated at 35° C. for 16-20 hours and then read. The amount of growth in the wells containing the test compound was compared with the amount of growth in the growth-control wells (no test compound) used in each tray.

[2] = test system: Methicillin-resistant Staphylococcus aureus OC 3726 COL; assay: MIC, microdilution broth method (NCCLS), strain B; conditions: read-out: MIC B Strain
Experimental: as §1, §2

[3] = test system: Staphylococcus aureus OC4172; assay: MIC, microdilution broth method (NCCLS), strain C; assay type: cell-based; conditions: cation adjusted Mueller-Hinton broth, 35° C., 16-20 hours
[4] = test system: Enterococcus faecium OC 3312 vancomycin resistant; assay: MIC, microdilution broth method (NCCLS), strain A; conditions: read-out: MIC A Strain
Experimental: as §1, §2

Row | SMILES | MIC [1] [µg/mL] | MIC [2] [µg/mL] | MIC [3] [µg/mL] | MIC [4] [µg/mL]
1 | CO[C@H]1/C=C/O[C@@]2(C)Oc3c(C)c(O)c4c(O)c(c([C@H](O)C[N+](=O)[O-])c(O)c4c3C2=O)NC(=O)/C(C)=C\C=C\[C@H](C)[C@H](O)[C@@H](C)[C@@H](O)[C@@H](C)[C@H](OC(C)=O)[C@@H]1C (single isomer, unassigned) [Compound 5] | 8 (≈ 10.2 µM) | 8 (≈ 10.2 µM) | 8 (≈ 10.2 µM) | 8 (≈ 10.2 µM)
2 | CO[C@H]1/C=C/O[C@@]2(C)Oc3c(C)c(O)c4c(c3C2=O)C(=O)C(CC[N+](=O)[O-])=C(NC(=O)/C(C)=C\C=C\[C@H](C)[C@H](O)[C@@H](C)[C@@H](O)[C@@H](C)[C@H](OC(C)=O)[C@@H]1C)C4=O [Compound 1] | ≤ 0.03 | ≤ 0.03 | ≤ 0.03 | 0.12 (≈ 0.156 µM)
3 | CO[C@H]1/C=C/O[C@@]2(C)Oc3c(C)c(O)c4c(O)c(c(CC[N+](=O)[O-])c(O)c4c3C2=O)NC(=O)/C(C)=C\C=C\[C@H](C)[C@H](O)[C@@H](C)[C@@H](O)[C@@H](C)[C@H](OC(C)=O)[C@@H]1C [Compound 2] | ≤ 0.03 | ≤ 0.03 | ≤ 0.03 | 1 (≈ 1.3 µM)
4 | CO[C@H]1/C=C/O[C@@]2(C)Oc3c(C)c(O)c4c(O)c(c(C(C[N+](=O)[O-])C[N+](=O)[O-])c(O)c4c3C2=O)NC(=O)/C(C)=C\C=C\[C@H](C)[C@H](O)[C@@H](C)[C@@H](O)[C@@H](C)[C@H](OC(C)=O)[C@@H]1C [Compound 3] | 0.25 (≈ 0.301 µM) | 0.5 (≈ 0.603 µM) | 0.25 (≈ 0.301 µM) | 4 (≈ 4.82 µM)
5 | CO[C@H]1/C=C/O[C@@]2(C)Oc3c(C)c(O)c4c(c3C2=O)C(=O)C(C(C[N+](=O)[O-])C[N+](=O)[O-])=C(NC(=O)/C(C)=C\C=C\[C@H](C)[C@H](O)[C@@H](C)[C@@H](O)[C@@H](C)[C@H](OC(C)=O)[C@@H]1C)C4=O [Compound 4] | 0.5 (≈ 0.604 µM) | 1 (≈ 1.21 µM) | 0.5 (≈ 0.604 µM) | 2 (≈ 2.42 µM)
6 | CO[C@H]1/C=C/O[C@@]2(C)Oc3c(C)c(O)c4c(O)c(c(C(CN)CN)c(O)c4c3C2=O)NC(=O)/C(C)=C\C=C\[C@H](C)[C@H](O)[C@@H](C)[C@@H](O)[C@@H](C)[C@H](OC(C)=O)[C@@H]1C [Compound 8] | 1 (≈ 1.3 µM) | 0.5 (≈ 0.649 µM) | 0.25 (≈ 0.325 µM) | 1 (≈ 1.3 µM)
7 | CO[C@H]1/C=C/O[C@@]2(C)Oc3c(C)c(O)c4c(O)c(c(CCNCc5ccccc5)c(O)c4c3C2=O)NC(=O)/C(C)=C\C=C\[C@H](C)[C@H](O)[C@@H](C)[C@@H](O)[C@@H](C)[C@H](OC(C)=O)[C@@H]1C [Compound 9] | ≤ 0.03 | ≤ 0.03 | ≤ 0.03 | 0.12 (≈ 0.144 µM)
8 | CO[C@H]1/C=C/O[C@@]2(C)Oc3c(C)c(O)c4c(O)c(c(CCN(C)C)c(O)c4c3C2=O)NC(=O)/C(C)=C\C=C\[C@H](C)[C@H](O)[C@@H](C)[C@@H](O)[C@@H](C)[C@H](OC(C)=O)[C@@H]1C [Compound 10] | 0.06 (≈ 0.078 µM) | ≤ 0.03 | ≤ 0.03 | 0.25 (≈ 0.325 µM)
9 | CO[C@H]1/C=C/O[C@@]2(C)Oc3c(C)c(O)c4c(O)c(c(CCN5CCCCC5)c(O)c4c3C2=O)NC(=O)/C(C)=C\C=C\[C@H](C)[C@H](O)[C@@H](C)[C@@H](O)[C@@H](C)[C@H](OC(C)=O)[C@@H]1C [Compound 11] | 0.06 (≈ 0.0742 µM) | 0.06 (≈ 0.0742 µM) | ≤ 0.03 | 0.25 (≈ 0.309 µM)
10 | CO[C@H]1/C=C/O[C@@]2(C)Oc3c(C)c(O)c4c(O)c(c(CCNCc5ccc(N6CCN(C)CC6)cc5)c(O)c4c3C2=O)NC(=O)/C(C)=C\C=C\[C@H](C)[C@H](O)[C@@H](C)[C@@H](O)[C@@H](C)[C@H](OC(C)=O)[C@@H]1C [Compound 12] | ≤ 0.03 | ≤ 0.03 | ≤ 0.03 | 0.5 (≈ 0.538 µM)
11 | CO[C@H]1/C=C/O[C@@]2(C)Oc3c(C)c(O)c4c(O)c(c(CCNCc5ccc(-n6cccn6)cc5)c(O)c4c3C2=O)NC(=O)/C(C)=C\C=C\[C@H](C)[C@H](O)[C@@H](C)[C@@H](O)[C@@H](C)[C@H](OC(C)=O)[C@@H]1C [Compound 13] | 0.12 (≈ 0.134 µM) | 0.12 (≈ 0.134 µM) | 0.12 (≈ 0.134 µM) | 0.5 (≈ 0.557 µM)
12 | CO[C@H]1/C=C/O[C@@]2(C)Oc3c(C)c(O)c4c(O)c(c(CCNCc5ccc(-c6ncccn6)cc5)c(O)c4c3C2=O)NC(=O)/C(C)=C\C=C\[C@H](C)[C@H](O)[C@@H](C)[C@@H](O)[C@@H](C)[C@H](OC(C)=O)[C@@H]1C [Compound 14] | 0.5 (≈ 0.55 µM) | 1 (≈ 1.1 µM) | 0.5 (≈ 0.55 µM) | 1 (≈ 1.1 µM)
13 | CO[C@H]1/C=C/O[C@@]2(C)Oc3c(C)c(O)c4c(O)c(c(CCNCc5ccc(-c6cccnn6)cc5)c(O)c4c3C2=O)NC(=O)/C(C)=C\C=C\[C@H](C)[C@H](O)[C@@H](C)[C@@H](O)[C@@H](C)[C@H](OC(C)=O)[C@@H]1C [Compound 15] | 0.25 (≈ 0.275 µM) | 0.5 (≈ 0.55 µM) | 0.25 (≈ 0.275 µM) | 1 (≈ 1.1 µM)
